Assay results as given in ChEMBL document CHEMBL1201862, “PubChem BioAssay data set” (2004).
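48-hour exposure; five concentrations; linearly interpolated endpoints. GI50 = concentration required for 50% inhibition of growth.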 Active and inactive are the calls of the source. No stated cut-off is given here; in the data, active = GI50 up to about 1.1 µM and inactive = higher.

Legend:
Assay in all cases: NCI-60 cell line screen, 48 h
786-0 = system: 786-0
A498 = system: A498
A549 = system: A549
ACHN = system: ACHN
CAKI-1 = system: CAKI-1
CCRF-CEM = system: CCRF-CEM
COLO 205 = system: COLO 205
DLD-1 = system: DLD-1
DMS-273 = system: DMS-273
EKVX = system: EKVX
HCC 2998 = system: HCC 2998
HCT-116 = system: HCT-116
HCT-15 = system: HCT-15
HOP-18 = system: HOP-18
HOP-62 = system: HOP-62
HT-29 = system: HT-29
IGROV-1 = system: IGROV-1
K562 = system: K562
KM-20L2 = system: KM-20L2
KM12 = system: KM12
LOX IMVI = system: LOX IMVI
LXFL 529 = system: LXFL 529
M14 = system: M14
M19-MEL = system: M19-MEL
MOLT-4 = system: MOLT-4
Malme-3M = system: Malme-3M
NCI-H226 = system: NCI-H226
NCI-H23 = system: NCI-H23
NCI-H460 = system: NCI-H460
NCI-H522 = system: NCI-H522
OVCAR-3 = system: OVCAR-3
OVCAR-4 = system: OVCAR-4
OVCAR-5 = system: OVCAR-5
OVCAR-8 = system: OVCAR-8
RXF 631 = system: RXF 631
SF-268 = system: SF-268
SF-295 = system: SF-295
SF-539 = system: SF-539
SK-MEL-28 = system: SK-MEL-28
SK-MEL-2 = system: SK-MEL-2
SK-MEL-5 = system: SK-MEL-5
SK-OV-3 = system: SK-OV-3
SN12C = system: SN12C
SNB-19 = system: SNB-19
SNB-75 = system: SNB-75
SNB-78 = system: SNB-78
SW-620 = system: SW-620
TK-10 = system: TK-10
U-251 = system: U-251
UACC-257 = system: UACC-257
UACC-62 = system: UACC-62
XF498 = system: XF498
DMS-114 = system: DMS-114
HL-60 = system: HL-60
HOP-92 = system: HOP-92
RPMI-8226 = system: RPMI-8226
SR = system: SR
UO-31 = system: UO-31
RXF 393 = system: RXF 393

CC(C)OC(=O)C1=C(O)c2ccccc2S(=O)(=O)N1
GI50 (786-0): > 100 µM (inactive) | GI50 (A498): > 100 µM (inactive) | GI50 (A549): > 100 µM (inactive) | GI50 (ACHN): > 100 µM (inactive) | GI50 (CAKI-1): > 100 µM (inactive) | GI50 (CCRF-CEM): > 100 µM (inactive) | GI50 (COLO 205): > 100 µM (inactive) | GI50 (DLD-1): > 100 µM (inactive) | GI50 (DMS-273): > 100 µM (inactive) | GI50 (EKVX): > 100 µM (inactive) | GI50 (HCC 2998): > 100 µM (inactive) | GI50 (HCT-116): > 100 µM (inactive) | GI50 (HCT-15): > 100 µM | GI50 (HOP-18): > 100 µM (inactive) | GI50 (HOP-62): > 100 µM (inactive) | GI50 (HT-29): > 100 µM (inactive) | GI50 (IGROV-1): > 100 µM (inactive) | GI50 (K562): > 100 µM (inactive) | GI50 (KM-20L2): > 100 µM (inactive) | GI50 (KM12): > 100 µM (inactive) | GI50 (LOX IMVI): > 100 µM (inactive) | GI50 (LXFL 529): > 100 µM (inactive) | GI50 (M14): > 100 µM (inactive) | GI50 (M19-MEL): > 100 µM (inactive) | GI50 (MOLT-4): > 100 µM (inactive) | GI50 (Malme-3M): > 100 µM (inactive) | GI50 (NCI-H226): > 100 µM (inactive) | GI50 (NCI-H23): > 100 µM (inactive) | GI50 (NCI-H460): > 100 µM (inactive) | GI50 (NCI-H522): > 100 µM (inactive) | GI50 (OVCAR-3): > 100 µM (inactive) | GI50 (OVCAR-4): > 100 µM (inactive) | GI50 (OVCAR-5): > 100 µM (inactive) | GI50 (OVCAR-8): > 100 µM (inactive) | GI50 (RXF 631): > 100 µM (inactive) | GI50 (SF-268): > 100 µM (inactive) | GI50 (SF-295): > 100 µM (inactive) | GI50 (SF-539): > 100 µM (inactive) | GI50 (SK-MEL-28): > 100 µM (inactive) | GI50 (SK-MEL-2): > 100 µM (inactive) | GI50 (SK-MEL-5): > 100 µM (inactive) | GI50 (SK-OV-3): > 100 µM (inactive) | GI50 (SN12C): > 100 µM (inactive) | GI50 (SNB-19): > 100 µM (inactive) | GI50 (SNB-75): > 100 µM (inactive) | GI50 (SNB-78): > 100 µM (inactive) | GI50 (SW-620): > 100 µM (inactive) | GI50 (TK-10): > 100 µM (inactive) | GI50 (U-251): > 100 µM (inactive) | GI50 (UACC-257): > 100 µM (inactive) | GI50 (UACC-62): > 100 µM (inactive) | GI50 (XF498): > 100 µM (inactive)

OCc1c(-c2cccc3ccccc23)sc(-c2cccc3ccccc23)c1CO
GI50 (786-0): 14 µM (inactive) | GI50 (ACHN): 12.3 µM (inactive) | GI50 (CCRF-CEM): 6.41 µM (inactive) | GI50 (COLO 205): 11.6 µM (inactive) | GI50 (DMS-114): 9.1 µM (inactive) | GI50 (DMS-273): 15.2 µM (inactive) | GI50 (EKVX): 11.3 µM (inactive) | GI50 (HCC 2998): 18.1 µM (inactive) | GI50 (HCT-15): 14.7 µM | GI50 (HL-60): 15.5 µM (inactive) | GI50 (HOP-18): 13.5 µM (inactive) | GI50 (HOP-62): 13 µM (inactive) | GI50 (HOP-92): 15.1 µM (inactive) | GI50 (HT-29): 15.3 µM (inactive) | GI50 (IGROV-1): 14.1 µM (inactive) | GI50 (K562): 6.5 µM (inactive) | GI50 (KM-20L2): 11.7 µM (inactive) | GI50 (KM12): 12.4 µM (inactive) | GI50 (LOX IMVI): 14.6 µM (inactive) | GI50 (LXFL 529): 14 µM (inactive) | GI50 (M14): 14.5 µM (inactive) | GI50 (M19-MEL): 15.5 µM (inactive) | GI50 (MOLT-4): 9.04 µM (inactive) | GI50 (Malme-3M): 12.2 µM (inactive) | GI50 (NCI-H226): 16.7 µM (inactive) | GI50 (NCI-H23): 14.5 µM (inactive) | GI50 (NCI-H460): 14.3 µM (inactive) | GI50 (NCI-H522): 10.5 µM (inactive) | GI50 (OVCAR-3): 13.4 µM (inactive) | GI50 (OVCAR-5): 17 µM (inactive) | GI50 (OVCAR-8): 13 µM (inactive) | GI50 (RPMI-8226): 6.9 µM (inactive) | GI50 (RXF 631): 18.2 µM (inactive) | GI50 (SF-268): 13.2 µM (inactive) | GI50 (SF-295): 14.1 µM (inactive) | GI50 (SF-539): 15.3 µM (inactive) | GI50 (SK-MEL-28): 10.4 µM (inactive) | GI50 (SK-MEL-2): 14.6 µM (inactive) | GI50 (SK-MEL-5): 11.3 µM (inactive) | GI50 (SK-OV-3): 15.2 µM (inactive) | GI50 (SN12C): 13.5 µM (inactive) | GI50 (SNB-19): 12.5 µM (inactive) | GI50 (SNB-75): 14.3 µM (inactive) | GI50 (SNB-78): 16.2 µM (inactive) | GI50 (SR): 13.5 µM (inactive) | GI50 (SW-620): 15.6 µM (inactive) | GI50 (TK-10): 13.1 µM (inactive) | GI50 (U-251): 12.2 µM (inactive) | GI50 (UACC-257): 12.8 µM (inactive) | GI50 (UACC-62): 11.3 µM (inactive) | GI50 (UO-31): 11.1 µM (inactive) | GI50 (XF498): 6.89 µM (inactive)

CC1(C)C2CCC3(OCCO3)C1C1OC12 (stereo not drawn)
GI50 (786-0): > 100 µM (inactive) | GI50 (A498): > 100 µM (inactive) | GI50 (A549): > 100 µM (inactive) | GI50 (ACHN): > 100 µM (inactive) | GI50 (CAKI-1): 44.3 µM (inactive) | GI50 (CCRF-CEM): > 100 µM (inactive) | GI50 (COLO 205): > 100 µM (inactive) | GI50 (DMS-273): > 100 µM (inactive) | GI50 (EKVX): > 100 µM (inactive) | GI50 (HCT-116): > 100 µM (inactive) | GI50 (HCT-15): > 100 µM | GI50 (HL-60): > 100 µM (inactive) | GI50 (HOP-18): 45.6 µM (inactive) | GI50 (HOP-92): > 100 µM (inactive) | GI50 (HT-29): > 100 µM (inactive) | GI50 (K562): > 100 µM (inactive) | GI50 (KM-20L2): > 100 µM (inactive) | GI50 (KM12): > 100 µM (inactive) | GI50 (LOX IMVI): > 100 µM (inactive) | GI50 (M14): > 100 µM (inactive) | GI50 (MOLT-4): > 100 µM (inactive) | GI50 (Malme-3M): > 100 µM (inactive) | GI50 (NCI-H226): > 100 µM (inactive) | GI50 (NCI-H23): > 100 µM (inactive) | GI50 (NCI-H460): > 100 µM (inactive) | GI50 (NCI-H522): > 100 µM (inactive) | GI50 (OVCAR-3): > 100 µM (inactive) | GI50 (OVCAR-4): > 100 µM (inactive) | GI50 (OVCAR-5): > 100 µM (inactive) | GI50 (OVCAR-8): > 100 µM (inactive) | GI50 (RPMI-8226): > 100 µM (inactive) | GI50 (RXF 393): > 100 µM (inactive) | GI50 (RXF 631): > 100 µM (inactive) | GI50 (SF-268): > 100 µM (inactive) | GI50 (SF-295): > 100 µM (inactive) | GI50 (SF-539): > 100 µM (inactive) | GI50 (SK-MEL-28): > 100 µM (inactive) | GI50 (SK-MEL-2): > 100 µM (inactive) | GI50 (SK-MEL-5): > 100 µM (inactive) | GI50 (SK-OV-3): > 100 µM (inactive) | GI50 (SNB-19): 30 µM (inactive) | GI50 (SNB-75): 41.4 µM (inactive) | GI50 (SNB-78): > 100 µM (inactive) | GI50 (SW-620): > 100 µM (inactive) | GI50 (TK-10): > 100 µM (inactive) | GI50 (U-251): > 100 µM (inactive) | GI50 (UACC-257): > 100 µM (inactive) | GI50 (UO-31): > 100 µM (inactive) | GI50 (XF498): > 100 µM (inactive)
